Experiment [1] has as its system human bone marrow progenitor cells. The experiment in a line: Bone marrow progenitor growth. It counts as cell-based. To be noted: CFU-GM, 240 h.
Another experiment addresses T1, TAO2 (Homo sapiens, UniProt Q9UL54).
T1 sequence (Q9UL54 1-1235): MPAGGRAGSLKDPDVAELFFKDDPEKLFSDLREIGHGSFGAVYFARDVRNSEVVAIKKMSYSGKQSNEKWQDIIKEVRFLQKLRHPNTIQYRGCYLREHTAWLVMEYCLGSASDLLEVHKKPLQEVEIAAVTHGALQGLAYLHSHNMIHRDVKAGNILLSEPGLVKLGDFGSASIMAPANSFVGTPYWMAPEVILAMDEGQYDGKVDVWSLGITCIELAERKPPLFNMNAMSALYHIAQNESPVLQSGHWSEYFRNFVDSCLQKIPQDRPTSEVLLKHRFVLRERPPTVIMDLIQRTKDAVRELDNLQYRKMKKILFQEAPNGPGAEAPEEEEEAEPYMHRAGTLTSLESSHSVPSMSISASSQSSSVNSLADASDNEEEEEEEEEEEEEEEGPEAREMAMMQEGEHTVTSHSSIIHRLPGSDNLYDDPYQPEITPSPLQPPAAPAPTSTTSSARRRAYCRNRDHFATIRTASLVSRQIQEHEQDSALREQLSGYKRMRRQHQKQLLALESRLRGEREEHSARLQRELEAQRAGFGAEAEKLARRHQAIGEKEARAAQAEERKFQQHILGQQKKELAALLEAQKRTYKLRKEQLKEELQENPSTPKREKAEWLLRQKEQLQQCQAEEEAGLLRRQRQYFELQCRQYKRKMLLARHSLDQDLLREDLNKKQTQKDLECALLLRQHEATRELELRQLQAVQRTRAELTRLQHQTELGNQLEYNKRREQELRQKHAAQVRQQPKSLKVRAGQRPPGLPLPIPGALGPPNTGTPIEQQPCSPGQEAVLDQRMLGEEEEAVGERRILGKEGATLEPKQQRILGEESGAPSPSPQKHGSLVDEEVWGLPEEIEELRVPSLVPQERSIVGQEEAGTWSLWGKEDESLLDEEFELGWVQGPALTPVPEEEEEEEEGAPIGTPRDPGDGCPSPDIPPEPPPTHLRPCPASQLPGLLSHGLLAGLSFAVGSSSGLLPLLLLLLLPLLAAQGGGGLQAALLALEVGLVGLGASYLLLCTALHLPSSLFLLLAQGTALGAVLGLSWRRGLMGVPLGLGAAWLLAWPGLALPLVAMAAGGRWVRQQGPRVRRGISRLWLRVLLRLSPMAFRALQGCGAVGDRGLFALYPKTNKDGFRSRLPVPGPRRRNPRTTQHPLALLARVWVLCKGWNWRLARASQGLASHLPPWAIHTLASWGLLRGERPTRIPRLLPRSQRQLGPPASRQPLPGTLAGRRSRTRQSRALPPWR
The experiment in a line: IC50 Profiler Express kinase assay. It counts as biochemical.

A further experiment addresses PTK5 (Homo sapiens, UniProt P42685). Description: IC50 Profiler Express kinase assay. It counts as biochemical.

Like-named read-outs stand apart in the source and are kept apart here.

Chain of PTK5 (P42685 whole entry): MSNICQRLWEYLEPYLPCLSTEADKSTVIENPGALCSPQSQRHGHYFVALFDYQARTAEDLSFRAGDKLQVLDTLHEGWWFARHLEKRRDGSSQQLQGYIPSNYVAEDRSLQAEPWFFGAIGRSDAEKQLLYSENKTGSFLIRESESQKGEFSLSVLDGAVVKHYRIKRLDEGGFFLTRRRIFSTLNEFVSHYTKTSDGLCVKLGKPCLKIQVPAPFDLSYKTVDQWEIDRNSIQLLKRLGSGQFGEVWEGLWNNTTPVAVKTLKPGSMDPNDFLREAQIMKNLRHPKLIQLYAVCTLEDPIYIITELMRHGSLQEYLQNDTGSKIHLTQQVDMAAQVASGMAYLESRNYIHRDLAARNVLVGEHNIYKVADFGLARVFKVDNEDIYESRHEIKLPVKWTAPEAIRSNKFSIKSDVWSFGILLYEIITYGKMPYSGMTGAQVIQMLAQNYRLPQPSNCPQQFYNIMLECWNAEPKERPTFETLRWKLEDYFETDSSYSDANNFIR

What is called IC50 is the concentration that inhibits the measured activity by half. `Cc1ccc(Nc2nccc(N(C)c3ccc4c(C)n(C)nc4c3)n2)cc1S(N)(=O)=O` [Pazopanib]: the IC50 in experiment [1] (read-out: IC50, GM-CSF–driven CFU-GM formation) was 1000 nM; against TAO2, 382 nM; against PTK5 it was 97 nM.

In the case of `CCN(CC)CCNC(=O)c1c(C)[nH]c(/C=C2\C(=O)Nc3ccc(F)cc32)c1C` [Sunitinib], in experiment [1] (read-out: IC50, CFU-GM formation induced by GM-CSF), the IC50 was found to be 32.7 nM.

Values taken from article PMC2768111 (British Journal of Cancer, 2009).
